Results from US6962920B2, “Pyrimidine derivatives and methods of making and using these derivatives” (Duquesne University of the Holy Ghost, priority 1992, dated 2005).

Assays:
SF-539 = assay: NCI in vitro anti-cancer activity, CNS Cancer; assay type: cell-based; details: Table 29, CNS Cancer
TK-10 = assay: NCI in vitro anti-cancer activity, Renal Cancer; assay type: cell-based; details: Table 29, Renal Cancer, TK-10
Tg DHFR = target: T1, Tg DHFR (Toxoplasma gondii, UniProt Q07422); assay: biochemical; assay type: biochemical
T1 sequence (Q07422 1-610): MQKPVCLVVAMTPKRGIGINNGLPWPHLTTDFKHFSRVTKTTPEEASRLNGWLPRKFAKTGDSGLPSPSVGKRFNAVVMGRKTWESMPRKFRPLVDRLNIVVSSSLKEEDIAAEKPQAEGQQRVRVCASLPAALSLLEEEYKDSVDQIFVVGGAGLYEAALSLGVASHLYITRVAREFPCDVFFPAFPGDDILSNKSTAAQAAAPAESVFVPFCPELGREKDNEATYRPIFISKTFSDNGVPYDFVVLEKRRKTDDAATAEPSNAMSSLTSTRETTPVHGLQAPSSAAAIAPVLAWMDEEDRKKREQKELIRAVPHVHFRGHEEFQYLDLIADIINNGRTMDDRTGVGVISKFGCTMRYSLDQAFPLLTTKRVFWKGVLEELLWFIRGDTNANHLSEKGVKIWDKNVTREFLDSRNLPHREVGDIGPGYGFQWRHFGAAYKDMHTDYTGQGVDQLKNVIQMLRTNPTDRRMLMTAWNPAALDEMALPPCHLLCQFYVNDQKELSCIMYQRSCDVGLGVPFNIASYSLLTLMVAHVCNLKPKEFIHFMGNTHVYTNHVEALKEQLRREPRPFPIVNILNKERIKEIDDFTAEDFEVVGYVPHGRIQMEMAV
Description: (§1) The selectivity ratio is a measure of the selectivity of a compound for Pc DHFR or Tg DHFR and is expressed as the IC50 value of the DHFR from rate liver (RL) divided by the IC50 value of either the Pc DHFR or the Tg DHFR, depending on which organism the compounds are being tested against. For example, the selectivity ratio of a compound is calculated by the following formula: [formula]

UO-31 = assay: NCI in vitro anti-cancer activity, Renal Cancer; assay type: cell-based; details: Table 29, Renal Cancer, UO-31
Pc DHFR = target: T2, Pc DHFR (Pneumocystis carinii, UniProt P16184); assay: biochemical
T2 sequence (P16184 1-206): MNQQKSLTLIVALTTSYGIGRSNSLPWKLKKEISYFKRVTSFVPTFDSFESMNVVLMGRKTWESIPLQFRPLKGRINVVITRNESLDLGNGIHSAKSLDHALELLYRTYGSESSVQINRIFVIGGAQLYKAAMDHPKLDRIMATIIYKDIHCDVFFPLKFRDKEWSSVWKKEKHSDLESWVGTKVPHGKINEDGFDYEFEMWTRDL

MDA-MB-231/ATCC = assay: NCI in vitro anti-cancer activity, Breast Cancer; assay type: cell-based; details: Table 29, Breast Cancer
UACC-62 = assay: NCI in vitro anti-cancer activity, Melanoma; assay type: cell-based; details: Table 29, Melanoma, UACC-62
786-0 = assay: NCI in vitro anti-cancer activity, Renal Cancer; assay type: cell-based; details: Table 29, Renal Cancer, 786-0
SF-295 = assay: NCI in vitro anti-cancer activity, CNS Cancer; assay type: cell-based; details: Table 29, CNS Cancer, SF-295
MCF7 = assay: NCI in vitro anti-cancer activity, Breast Cancer; assay type: cell-based; details: Table 29, Breast Cancer, MCF7
SNB-19 = assay: NCI in vitro anti-cancer activity, CNS Cancer; assay type: cell-based; details: Table 29, CNS Cancer, SNB-19
MDA-N = assay: NCI in vitro anti-cancer activity, Breast Cancer; assay type: cell-based; details: Table 29, Breast Cancer
ACHN = assay: NCI in vitro anti-cancer activity, Renal Cancer; assay type: cell-based; details: Table 29, Renal Cancer
LOX IMVI = assay: NCI in vitro anti-cancer activity, Melanoma; assay type: cell-based; details: Table 29, Melanoma
BT-549 = assay: NCI in vitro anti-cancer activity, Breast Cancer; assay type: cell-based; details: Table 29, Breast Cancer, BT-549
IGROV1 = assay: NCI in vitro anti-cancer activity, Ovarian Cancer; assay type: cell-based; details: Table 29, Ovarian Cancer, IGROV1
RXF 393 = assay: NCI in vitro anti-cancer activity, Renal Cancer; assay type: cell-based; details: Table 29, Renal Cancer, RXF 393
SK-OV-3 = assay: NCI in vitro anti-cancer activity, Ovarian Cancer; assay type: cell-based; details: Table 29, Ovarian Cancer, SK-OV-3
HOP-92 = assay type: cell-based; details: Table 29, Non-Small Cell Lung Cancer, HOP-92
M14 = assay: NCI in vitro anti-cancer activity, Melanoma; assay type: cell-based; details: Table 29, Melanoma, M14
COLO 205 = assay: NCI in vitro anti-cancer activity, Colon Cancer; assay type: cell-based; details: Table 29, Colon Cancer, COLO 205
SK-MEL-28 = assay: NCI in vitro anti-cancer activity, Melanoma; assay type: cell-based; details: Table 29, Melanoma, SK-MEL-28
MDA-MB-435 = assay: NCI in vitro anti-cancer activity, Breast Cancer; assay type: cell-based; details: Table 29, Breast Cancer
RL DHFR = target: T3, RL DHFR (Rattus norvegicus, UniProt Q920D2); assay: Inhibition of DHFR from rat liver; assay type: biochemical
T3 construct: Toxoplasmosis gondii (Tg) and rat liver (RL); from tissue; host or cells: rat liver
T3 sequence (Q920D2 1-187): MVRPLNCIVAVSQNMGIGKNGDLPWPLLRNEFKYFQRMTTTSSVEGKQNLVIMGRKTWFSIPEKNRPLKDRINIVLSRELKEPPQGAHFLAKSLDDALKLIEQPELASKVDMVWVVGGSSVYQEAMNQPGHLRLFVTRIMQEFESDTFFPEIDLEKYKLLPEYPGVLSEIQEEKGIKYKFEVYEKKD
Description: as §1

NCI-H522 = assay type: cell-based; details: Table 29, Non-Small Cell Lung Cancer, NCI-H522
T-47D = assay: NCI in vitro anti-cancer activity, Breast Cancer; assay type: cell-based; details: Table 29, Breast Cancer
U251 = assay: NCI in vitro anti-cancer activity, CNS Cancer; assay type: cell-based; details: Table 29, CNS Cancer, U251
SR = assay: NCI in vitro anti-cancer activity, Leukemia; assay type: cell-based; details: Table 29, Leukemia

Structure (SMILES)	GI50 (SF-539) [µM]	GI50 (TK-10) [µM]	GI50 (UO-31) [µM]	GI50 (MDA-MB-231/ATCC) [µM]	GI50 (UACC-62) [µM]	GI50 (786-0) [µM]	GI50 (SF-295) [µM]	GI50 (MCF7) [µM]	GI50 (SNB-19) [µM]	GI50 (MDA-N) [µM]	GI50 (ACHN) [µM]	GI50 (LOX IMVI) [µM]	GI50 (BT-549) [µM]	GI50 (IGROV1) [µM]	GI50 (RXF 393) [µM]	GI50 (SK-OV-3) [µM]	GI50 (HOP-92) [µM]	GI50 (M14) [µM]	GI50 (COLO 205) [µM]	GI50 (SK-MEL-28) [µM]	also measured
COc1ccc(CCc2cn(Cc3ccccc3)c3nc(N)nc(C)c23)cc1 [Compound 113-118]	30.2	> 100	> 100	< 100	80	> 100	79.3	29.6	> 100	78.3	34.8	50	40.9	68.2	94.7	> 100	31	93.6	38.2	> 100	% inhibition Tg DHFR (Tg DHFR; @ 31 μM): 15% @ 31 μM; % inhibition Pc DHFR (Pc DHFR; @ 31 μM): 60% @; GI50 (MDA-MB-435): 95.4 µM; % inhibition RL DHFR (RL DHFR; @ 31 μM): 48% @; GI50 (NCI-H522): 29.1 µM
COc1ccccc1CCc1cn(Cc2ccccc2)c2nc(N)nc(C)c12 [Compound 113-148]	7.2	10.2	4.78	10.8	12.3	11.6	8.43	12.6	10.9	14.7	7.99	13.7	15.8	14.2	11.1	17.3	16.3	12	11.7	15.7	% inhibition Tg DHFR (Tg DHFR; @ 85 μM): 27% @ 85 μM; % inhibition Pc DHFR (Pc DHFR; @ 85 μM): 45% @; GI50 (T-47D): 3.84 µM; GI50 (U251): 10.4 µM; GI50 (SR): 3.51 µM; GI50 (MDA-MB-435): 13 µM; % inhibition RL DHFR (RL DHFR; @ 85 μM): 27% @; GI50 (NCI-H522): 8.34 µM
